Test results from the supplement of paper PMC10307832.

How the values were obtained:
Assay in all cases: relative viability (nuclei count vs DMSO), 5 days (fraction); higher = more cells survive
[1] = compound: CCN1CCN(c2ccc(Nc3cc(N(C)C(=O)Nc4c(Cl)c(OC)cc(OC)c4Cl)ncn3)cc2)CC1 [BGJ398] + O=C(CCCCCCC(=O)Nc1ccccc1)NO [Vorinostat] (partner 1 µM)
Summary of the method: (§1)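 Lung cancer cell lines, seeded in 1536-well plates, were treated the following day by pin tool with a single drug or with five library-drug doses (not always all listed) in √10 steps on top of a fixed anchor-drug dose. Cells were fixed and nuclei stained in one step after 5 days, and nuclei were counted. Relative viability is the nuclei count for treated wells divided by that for vehicle wells, reported as medians of duplicate plates.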

[2] = compound: CCN1CCN(c2ccc(Nc3cc(N(C)C(=O)Nc4c(Cl)c(OC)cc(OC)c4Cl)ncn3)cc2)CC1 [BGJ398] + CC(=O)Nc1cccc(-n2c(=O)n(C3CC3)c(=O)c3c(Nc4ccc(I)cc4F)n(C)c(=O)c(C)c32)c1 [Trametinib] (partner 0.02 µM)
Summary of the method: as §1

[3] = compound: CCN1CCN(c2ccc(Nc3cc(N(C)C(=O)Nc4c(Cl)c(OC)cc(OC)c4Cl)ncn3)cc2)CC1 [BGJ398] + CS(=O)(=O)N1CCN(Cc2cc3nc(-c4cccc5[nH]ncc45)nc(N4CCOCC4)c3s2)CC1 [Pictilisib] (partner 1 µM)
Summary of the method: as §1

[4] = compound: C1=CC2=NC=CN=C2C=C1/C=C/3\C(=O)NC(=O)S3 + N=C(N)NC(=N)NCCc1ccccc1 [Phenformin] (partner 250 µM)
Summary of the method: as §1

Cell Line	relative viability ([1]; first compound 0.01 µM)	relative viability ([1]; first compound 0.03162 µM)	relative viability ([1]; first compound 0.1 µM)	relative viability ([1]; first compound 0.3162 µM)	relative viability ([1]; first compound 1 µM)	relative viability ([2]; first compound 0.01 µM)	relative viability ([2]; first compound 0.03162 µM)	relative viability ([2]; first compound 0.1 µM)	relative viability ([2]; first compound 0.3162 µM)	relative viability ([2]; first compound 1 µM)	relative viability ([3]; first compound 0.01 µM)	relative viability ([3]; first compound 0.03162 µM)	relative viability ([3]; first compound 0.1 µM)	relative viability ([3]; first compound 0.3162 µM)	relative viability ([3]; first compound 1 µM)	relative viability ([4]; first compound 0.02 µM)	relative viability ([4]; first compound 0.06325 µM)	relative viability ([4]; first compound 0.2 µM)	relative viability ([4]; first compound 0.6325 µM)	relative viability ([4]; first compound 2 µM)
NCI-H322M	1.04	0.853	0.942	0.892	0.876	0.587	0.465	0.511	0.435	0.507	0.511	0.415	0.508	0.432	0.515	0.744	0.813	0.796	0.776	0.669
NCI-H358	0.614	0.769	0.704	0.635	0.824	0.137	0.127	0.134	0.126	0.148	0.305	0.403	0.358	0.315	0.332	0.41	0.382	0.356	0.283	0.149
NCI-H441	–	0.73	0.822	0.916	0.81	–	0.484	0.52	0.429	0.436	0.416	0.496	0.558	0.54	0.487	0.856	1.06	0.84	0.755	0.327
NCI-H460	0.737	0.706	1.18	0.809	0.67	0.0671	0.131	0.209	0.13	0.0628	0.343	0.435	0.393	0.408	0.343	0.477	0.619	0.536	0.516	0.468
NCI-H520	0.637	0.563	0.503	0.269	0.332	0.586	0.548	0.351	0.189	0.205	0.239	0.257	0.209	0.169	0.194	0.635	0.728	0.601	0.464	0.644
NCI-H596	0.612	0.619	0.674	0.508	0.528	0.719	0.631	0.773	0.709	0.62	0.367	0.416	0.355	0.389	0.321	0.744	0.66	0.742	0.675	0.714
NCI-H647	0.471	0.549	0.482	0.51	0.626	0.374	0.573	0.526	0.447	0.345	0.406	0.511	0.38	0.401	0.29	0.587	0.56	0.591	0.384	0.437
NCI-H650	0.414	0.427	0.543	0.464	0.411	0.927	1.04	1.08	0.963	0.959	0.87	0.943	0.867	0.858	0.868	0.453	0.487	0.527	0.448	0.348
